Measurements reported in paper PMC11766267 (International Journal of Molecular Sciences, 2025).
“And” between values parts separate entries of the source, which are not always exact repeats. Equal entries are not always repeated. Where two headings read alike, the source gives them in different places.

Key:
[1] = tested on: HCT-116, MDA-MB-231, HeLa, and MCF-7; test: MTT cytotoxicity assay, ranges stated over several cell lines; format: cell-based; conditions: Homo sapiens
Protocol: (§1) Subsequently, 100 µL of dimethyl sulfoxide was introduced to dissolve the insoluble formazan.

[2] = tested on: MDA-MB-231; test: MTT cytotoxicity assay, MDA-MB-231; format: cell-based; conditions: Homo sapiens, 24 h treatment, mean ± SD of triplicate
Protocol: as §1

[3] = tested on: HCT-116; test: MTT cytotoxicity assay, HCT-116; format: cell-based; conditions: Homo sapiens, 24 h treatment, mean ± SD of triplicate
Protocol: as §1

[4] = target: VEGFR-2 (Homo sapiens, UniProt P35968); test: In vitro protein kinase inhibition assay (ELISA kit), VEGFR-2; conditions: individual Data 1-3
VEGFR-2, sequence (P35968 20-1356): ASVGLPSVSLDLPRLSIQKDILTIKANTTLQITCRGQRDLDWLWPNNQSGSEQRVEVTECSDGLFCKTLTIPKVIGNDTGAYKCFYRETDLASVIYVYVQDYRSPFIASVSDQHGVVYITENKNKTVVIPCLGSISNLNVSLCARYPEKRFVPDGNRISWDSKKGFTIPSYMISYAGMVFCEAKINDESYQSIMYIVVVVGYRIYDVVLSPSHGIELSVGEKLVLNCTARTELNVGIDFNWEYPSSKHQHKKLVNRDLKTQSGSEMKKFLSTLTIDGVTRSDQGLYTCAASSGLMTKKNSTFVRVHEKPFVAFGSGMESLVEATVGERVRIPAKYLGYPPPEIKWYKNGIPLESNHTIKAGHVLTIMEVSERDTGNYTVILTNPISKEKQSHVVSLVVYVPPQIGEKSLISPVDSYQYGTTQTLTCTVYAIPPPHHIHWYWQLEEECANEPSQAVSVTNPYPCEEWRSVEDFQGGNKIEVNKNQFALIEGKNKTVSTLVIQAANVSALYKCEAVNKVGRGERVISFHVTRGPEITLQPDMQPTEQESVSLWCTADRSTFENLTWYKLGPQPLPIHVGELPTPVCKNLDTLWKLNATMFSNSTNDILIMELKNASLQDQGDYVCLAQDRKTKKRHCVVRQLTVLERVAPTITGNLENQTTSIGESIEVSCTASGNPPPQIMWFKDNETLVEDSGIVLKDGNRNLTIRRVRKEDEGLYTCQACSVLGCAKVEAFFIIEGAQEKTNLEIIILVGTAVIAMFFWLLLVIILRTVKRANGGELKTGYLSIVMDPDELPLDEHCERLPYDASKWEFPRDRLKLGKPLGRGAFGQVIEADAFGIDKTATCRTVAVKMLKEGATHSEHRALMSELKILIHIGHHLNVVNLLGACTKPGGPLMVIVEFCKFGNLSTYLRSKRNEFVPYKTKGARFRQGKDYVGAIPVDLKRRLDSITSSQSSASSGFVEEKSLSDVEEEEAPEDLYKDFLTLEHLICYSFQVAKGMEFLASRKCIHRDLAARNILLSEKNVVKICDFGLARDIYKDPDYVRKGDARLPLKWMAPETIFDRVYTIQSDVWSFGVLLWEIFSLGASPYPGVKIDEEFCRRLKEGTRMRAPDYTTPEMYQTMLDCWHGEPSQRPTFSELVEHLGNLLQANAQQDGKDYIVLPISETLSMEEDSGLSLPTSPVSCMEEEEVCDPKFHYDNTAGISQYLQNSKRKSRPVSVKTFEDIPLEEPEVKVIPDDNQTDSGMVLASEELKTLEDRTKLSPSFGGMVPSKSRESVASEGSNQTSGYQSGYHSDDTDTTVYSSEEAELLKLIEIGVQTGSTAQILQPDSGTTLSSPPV

[5] = tested on: MCF-7; test: MTT cytotoxicity assay, MCF-7; format: cell-based, human; conditions: Homo sapiens, MCF7, 24 h, 24 h treatment, mean ± SD of triplicate
Protocol: as §1

[6] = tested on: MCF-7a; test: In vitro anti-estrogenic activity assay, MCF-7a
[7] = MTT cytotoxicity assay, normal cell line WI-38; format: cell-based, human; conditions: human, WI-38 cells (normal human lung fibroblasts), normal (non-cancer) cell line, 24 h treatment
Protocol: as §1

[8] = tested on: MCF-7; test: In vitro anti-estrogenic activity assay, MCF-7
[9] = target: T1, aromatase (CYP19A, EC 1.14.14.14) (Homo sapiens, UniProt P11511); test: biochemical; conditions: individual Data 1-3
T1 construct: Microsomal samples were isolated from tissue using the Microsome Isolation Kit; tissue BioVision K983-100; host or cells: microsomes from an unnamed tissue
T1 sequence (P11511 1-503): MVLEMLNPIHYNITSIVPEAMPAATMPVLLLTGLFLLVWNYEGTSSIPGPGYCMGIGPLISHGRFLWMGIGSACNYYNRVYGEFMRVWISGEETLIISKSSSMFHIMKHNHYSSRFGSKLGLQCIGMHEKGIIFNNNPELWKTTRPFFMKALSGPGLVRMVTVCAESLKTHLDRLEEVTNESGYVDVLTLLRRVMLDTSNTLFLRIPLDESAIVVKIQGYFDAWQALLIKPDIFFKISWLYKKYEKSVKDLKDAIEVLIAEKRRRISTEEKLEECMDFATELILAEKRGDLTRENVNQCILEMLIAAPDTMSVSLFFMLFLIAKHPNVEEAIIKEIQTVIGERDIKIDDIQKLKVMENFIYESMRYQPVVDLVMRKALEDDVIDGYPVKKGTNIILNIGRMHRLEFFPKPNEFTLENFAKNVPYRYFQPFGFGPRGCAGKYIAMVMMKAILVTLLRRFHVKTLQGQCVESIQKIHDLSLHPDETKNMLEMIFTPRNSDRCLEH
Protocol: In vitro aromatase assay was performed using the BioVision Aromatase Activity Assay Kit (Catalog # K983-100; BioVision, Milpitas, CA, USA). Microsomal samples were isolated from tissue using the Microsome Isolation Kit (Cat. #K249; BioVision, Milpitas, CA, USA). A standard curve was established by diluting the Fluorescence Standard provided in the kit to create a 0.5 pmole/µL solution, followed by setting up a series of standards in a white 96-well plate, adjusting the total volume to 100 µL with aromatase assay buffer. For each reaction well, a 2X concentrated mix was prepared by adding 2–48 µL of the microsomal sample and 2 µL of the NADPH generating system, bringing the final volume to 50 µL with aromatase assay buffer. Background controls (no enzyme) and positive controls (with recombinant aromatase) were included. […] After a 10 min incubation at 37 °C, 30 µL of the substrate/NADP+ mixture was added to each well, and fluorescence was measured immediately in kinetic mode for 60 min at 37 °C. Finally, the change in fluorescence was calculated to determine the specific activity of aromatase using the formula provided in the kit protocol.

[10] = target: CDK2 (Homo sapiens, UniProt P24941); test: In vitro protein kinase inhibition assay (ELISA kit), CDK2
[11] = target: HER2 (Homo sapiens, UniProt P04626); test: In vitro protein kinase inhibition assay (ELISA kit), HER2
HER2, sequence (P04626 23-1255): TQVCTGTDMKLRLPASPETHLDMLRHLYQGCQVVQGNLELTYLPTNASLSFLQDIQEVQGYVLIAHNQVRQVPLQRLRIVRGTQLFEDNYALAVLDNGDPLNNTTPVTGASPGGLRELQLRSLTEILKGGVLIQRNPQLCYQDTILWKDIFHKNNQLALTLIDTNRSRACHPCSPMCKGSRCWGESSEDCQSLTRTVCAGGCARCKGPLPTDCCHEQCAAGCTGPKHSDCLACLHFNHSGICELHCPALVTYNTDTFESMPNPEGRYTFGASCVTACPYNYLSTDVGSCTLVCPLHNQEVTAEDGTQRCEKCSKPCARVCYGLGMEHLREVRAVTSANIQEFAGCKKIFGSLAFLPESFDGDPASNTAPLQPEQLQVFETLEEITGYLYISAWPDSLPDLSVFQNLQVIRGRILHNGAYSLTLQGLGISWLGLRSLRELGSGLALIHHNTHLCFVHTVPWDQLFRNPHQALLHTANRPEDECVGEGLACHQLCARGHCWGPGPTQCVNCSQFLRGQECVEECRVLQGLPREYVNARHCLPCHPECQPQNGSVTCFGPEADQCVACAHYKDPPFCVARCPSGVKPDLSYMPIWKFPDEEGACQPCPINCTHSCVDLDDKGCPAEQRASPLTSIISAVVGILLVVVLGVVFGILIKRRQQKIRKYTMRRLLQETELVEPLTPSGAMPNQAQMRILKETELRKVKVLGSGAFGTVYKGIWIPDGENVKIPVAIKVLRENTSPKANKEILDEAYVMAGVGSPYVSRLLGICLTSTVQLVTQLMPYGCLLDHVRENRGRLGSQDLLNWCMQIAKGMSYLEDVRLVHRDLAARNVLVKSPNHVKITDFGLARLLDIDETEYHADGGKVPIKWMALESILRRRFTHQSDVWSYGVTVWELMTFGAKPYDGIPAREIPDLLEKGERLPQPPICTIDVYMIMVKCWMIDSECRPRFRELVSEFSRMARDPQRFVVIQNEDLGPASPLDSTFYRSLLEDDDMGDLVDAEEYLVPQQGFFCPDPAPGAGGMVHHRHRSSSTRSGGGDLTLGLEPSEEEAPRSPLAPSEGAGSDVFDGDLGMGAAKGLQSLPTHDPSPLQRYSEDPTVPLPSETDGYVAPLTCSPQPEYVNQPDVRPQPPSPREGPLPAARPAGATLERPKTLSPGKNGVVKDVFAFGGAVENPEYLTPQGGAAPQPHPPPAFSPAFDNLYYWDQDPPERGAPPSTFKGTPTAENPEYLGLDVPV

[12] = tested on: HeLa; test: MTT cytotoxicity assay, HeLa; format: cell-based; conditions: Homo sapiens, 24 h treatment, mean ± SD of triplicate
Protocol: as §1

[13] = tested on: WI-38; test: MTT cytotoxicity assay, normal cell line WI-38; format: cell-based, human; conditions: normal (non-cancer) cell line, 24 h treatment
Protocol: as §1

[14] = HCT-116, MDA-MB-231, HeLa, MCF-7, range, read-out: IC50 values, range over the cancer cell lines tested
[15] = cell count relative to the control (17β-E2)

Question: With O=C(/C=C/c1ccc(O)cc1)c1ccccc1 [Compound 4b, (E)-3-(4-Hydroxyphenyl)-1-phenylprop-2-en-1-one] as the molecule, how does the IC50 [1, 14] read?
Answer: 2.08 to 34.9 µM

Question: What about the IC50 ([1]; HCT-116 and HeLa, range over the compounds named, read-out: IC50 values, range against HCT-116 and HeLa) of the same molecule?
Answer: 6.59 to 22.6 µM

Question: What about the IC50 ([1]; MDA-MB-231 and MCF-7, range over the compounds named, read-out: IC50 values, range against MDA-MB-231 and MCF-7) of the same molecule?
Answer: 2.08 to 13.6 µM

Question: What about the IC50 [2] of the same molecule?
Answer: 4.93 ± 0.3 µM

Question: What about the IC50 [3] of the same molecule?
Answer: 6.59 ± 0.3 µM

Question: What about the “Inhibition (%) VEGFR2” value ([4]; 0.01 µM) of the same molecule?
Answer: 19.2% and 19.7%

Question: What about the “Inhibition (%) VEGFR2” value ([4]; 0.1 µM) of the same molecule?
Answer: 48.2% and 48.6%

Question: What about the “Inhibition (%) VEGFR2” value ([4]; 1 µM) of the same molecule?
Answer: 73.4%

Question: What about the “Inhibition (%) VEGFR2” value ([4]; 10 µM) of the same molecule?
Answer: 89% and 90%

Question: What about the “Inhibition (%) VEGFR2” value ([4]; 100 µM) of the same molecule?
Answer: 95.9%

Question: What about the inhibition at 0.01 µM ([4]; read-out: Inhibition (%) VEGFR2, 0.01 µM) of the same molecule?
Answer: 19.4%

Question: And the inhibition at 0.1 µM ([4]; read-out: Inhibition (%) VEGFR2, 0.1 µM)?
Answer: 48.3%

Question: What about the inhibition at 1 µM ([4]; read-out: Inhibition (%) VEGFR2, 1 µM) of the same molecule?
Answer: 73.8%

Question: And the inhibition at 10 µM ([4]; read-out: Inhibition (%) VEGFR2, 10 µM)?
Answer: 89.5%

Question: And the inhibition at 100 µM ([4]; read-out: Inhibition (%) VEGFR2, 100 µM)?
Answer: 96.1%

Question: What about the IC50 [5] of the same molecule?
Answer: 2.08 ± 0.1 µM

Question: What about the “Cell Proliferation MCF-7a %” value [6, 15] of the same molecule?
Answer: 99%

Question: And the “Cell Proliferation MCF-7a Cell Count” value ([6]; mean ± SD of triplicate)?
Answer: 20,669 ± 597

Question: What about the IC50 at 24 h [7] of the same molecule?
Answer: 54.6 ± 3.1 µM

Question: And the “Cell Proliferation MCF-7 %” value [8, 15]?
Answer: 34%

Question: And the “Cell Proliferation MCF-7 Cell Count” value ([8]; mean ± SD of triplicate)?
Answer: 6213 ± 221

Question: And the “Reduction of growth/cell count (inhibition) in MCF-7” value ([8]; relative to control)?
Answer: 66%

Question: What about the “Inhibition (%) Aromatase” value ([9]; 0.01 µM) of the same molecule?
Answer: 5.7% and 3.5% and 7.9%

Question: What about the “Inhibition (%) Aromatase” value ([9]; 0.1 µM) of the same molecule?
Answer: 9.9% and 14.2%

Question: And the “Inhibition (%) Aromatase” value ([9]; 1 µM)?
Answer: 44% and 41.7%

Question: And the “Inhibition (%) Aromatase” value ([9]; 10 µM)?
Answer: 72.5% and 78.6%

Question: And the “Inhibition (%) Aromatase” value ([9]; 100 µM)?
Answer: 87% and 93.8%

Question: And the inhibition at 0.1 µM ([9]; read-out: Inhibition (%) Aromatase, 0.1 µM)?
Answer: 11%

Question: And the inhibition at 1 µM ([9]; read-out: Inhibition (%) Aromatase, 1 µM)?
Answer: 47.8%

Question: What about the inhibition at 10 µM ([9]; read-out: Inhibition (%) Aromatase, 10 µM) of the same molecule?
Answer: 75%

Question: And the inhibition at 100 µM ([9]; read-out: Inhibition (%) Aromatase, 100 µM)?
Answer: 89%

Question: And the IC50 [10]?
Answer: 288 ± 9 nM

Question: What about the “Inhibition (%) CDK2” value ([10]; 0.01 µM, individual Data 1-3) of the same molecule?
Answer: 18.7% and 19.5%

Question: And the “Inhibition (%) CDK2” value ([10]; 0.1 µM, individual Data 1-3)?
Answer: 38.2% and 39.3%

Question: What about the “Inhibition (%) CDK2” value ([10]; 1 µM, individual Data 1-3) of the same molecule?
Answer: 66.1% and 65.3%

Question: And the “Inhibition (%) CDK2” value ([10]; 10 µM, individual Data 1-3)?
Answer: 84.9% and 86%

Question: And the “Inhibition (%) CDK2” value ([10]; 100 µM, individual Data 1-3)?
Answer: 94.8%

Question: And the inhibition at 100 µM ([10]; read-out: Inhibition (%) CDK2)?
Answer: 93.8%

Question: And the inhibition at 0.01 µM ([10]; read-out: Inhibition (%) CDK2, 0.01 µM, individual Data 1-3)?
Answer: 19.1%

Question: And the inhibition at 0.1 µM ([10]; read-out: Inhibition (%) CDK2, 0.1 µM, individual Data 1-3)?
Answer: 38.5%

Question: What about the inhibition at 1 µM ([10]; read-out: Inhibition (%) CDK2, 1 µM, individual Data 1-3) of the same molecule?
Answer: 66.9%

Question: What about the inhibition at 10 µM ([10]; read-out: Inhibition (%) CDK2, 10 µM, individual Data 1-3) of the same molecule?
Answer: 85.4%

Question: And the inhibition at 100 µM ([10]; read-out: Inhibition (%) CDK2, 100 µM, individual Data 1-3)?
Answer: 94.1%

Question: What about the IC50 [11] of the same molecule?
Answer: 387 ± 15 nM

Question: And the “Inhibition (%) Her2” value ([11]; 0.01 µM, individual Data 1-3)?
Answer: 8.76% and 10.34%

Question: What about the “Inhibition (%) Her2” value ([11]; 0.1 µM, individual Data 1-3) of the same molecule?
Answer: 36.2% and 38.76%

Question: What about the “Inhibition (%) Her2” value ([11]; 1 µM, individual Data 1-3) of the same molecule?
Answer: 71.3% and 70.87%

Question: And the “Inhibition (%) Her2” value ([11]; 10 µM, individual Data 1-3)?
Answer: 80.35% and 82.9%

Question: And the “Inhibition (%) Her2” value ([11]; 100 µM, individual Data 1-3)?
Answer: 93% and 95.67%

Question: What about the inhibition at 0.01 µM ([11]; read-out: Inhibition (%) Her2, 0.01 µM, individual Data 1-3) of the same molecule?
Answer: 9.25%

Question: What about the inhibition at 0.1 µM ([11]; read-out: Inhibition (%) Her2, 0.1 µM, individual Data 1-3) of the same molecule?
Answer: 37.7%

Question: And the inhibition at 1 µM ([11]; read-out: Inhibition (%) Her2, 1 µM, individual Data 1-3)?
Answer: 73%

Question: And the inhibition at 10 µM ([11]; read-out: Inhibition (%) Her2, 10 µM, individual Data 1-3)?
Answer: 81.6%

Question: And the inhibition at 100 µM ([11]; read-out: Inhibition (%) Her2, 100 µM, individual Data 1-3)?
Answer: 94.2%

Question: And the IC50 [12]?
Answer: 13.1 ± 1.1 µM

Question: For COc1ccccc1/C=C/C(=O)c1ccccc1 [Compound 4c, (E)-3-(2-Methoxyphenyl)-1-phenylprop-2-en-1-one], which IC50 [1, 14] is on record?
Answer: 23.5 to 74.5 µM

Question: What about the IC50 [2] of the same molecule?
Answer: 35.9 ± 2.1 µM

Question: And the IC50 [3]?
Answer: 28.4 ± 1.8 µM

Question: And the IC50 [5]?
Answer: 23.5 ± 1.6 µM

Question: What about the IC50 at 24 h [7] of the same molecule?
Answer: 77.3 to 100 µM

Question: And the IC50 [13]?
Answer: > 100 µM

Question: And the IC50 [12]?
Answer: 42.5 ± 2.5 µM
